Experimental data as given in PMC12040169 (PLOS Biology, 2025).

Test: in vitro
Conditions: human, hela cells

SMILES | viability at 28.5 h, 10 µM [%]
O=C(Nc1ccc(Cl)cc1)c1cccc(-n2cnnn2)c1 [CBK287791] | 84.2

Same assay, conditions: human, hela cells, % viability

SMILES | viability at 28.5 h, 10 µM [%]
O=C(NS(=O)(=O)c1cccc(-c2nnco2)c1)C1CC1C1CCCCC1 (stereo not drawn) [CBK305924] | 90.8
COc1cc(C=CC(=O)N(C)c2ccccc2C(=O)O)cc(OC)c1OC [CBK296136] | 93.1
CN1CCN(C(=O)c2ccc(-c3cnc4[nH]c(=O)n(CCN5CCOCC5)c4n3)cc2)CC1 [CBK064800] | 114
CCN(CC)CC(=O)Nc1ccccc1OC [CBK266213C] | 113
CCCCN(C)S(=O)(=O)c1ccc(C(C)(C)CC)cc1 [CBK044836] | 89.9
COc1ccc(C2CCCN2S(=O)(=O)c2ccccc2[N+](=O)[O-])cc1OC (stereo not drawn) [CBK295309] | 96.1
O=C(NC(=O)c1ccc2ccccc2c1)Nc1ccc(Br)cc1 [CBK261735] | 107
COc1ccccc1CN(CCCn1ccnc1)Cc1cccn1C [CBK283160] | 92.2
CCCN1CC2(CCN(Cc3nccn3C)CC2)CC1C(=O)O (stereo not drawn) [CBK307658] | 83.2
CCOC(=O)c1sc(NC(=O)Nc2cccc(Cl)c2)c(C(N)=O)c1C [CBK262658] | 107
Cc1nnc(SCCN2CCOC2=O)n1CCc1cccs1 [CBK304029] | 93.7
CC(C)(C)c1ccc(OCC(=O)Nc2ccc(OCC(=O)O)cc2)cc1 [CBK287013] | 113
CNC(=O)CSc1nccc(C(F)(F)F)n1 [CBK107759] | 101
O=C(CN1C(=O)c2ccc([N+](=O)[O-])cc2C1=O)Nc1cc(Cl)ccc1C(=O)O [CBK263472] | 97.1
Cc1cc(C)n(CCCNC(=O)c2ncoc2-c2ccc(F)cc2)n1 [CBK282357] | 91.3
O=C(Cc1c[nH]c2ccccc12)NC1CCCC1 [CBK200238] | 76.1
COc1cccc(CNc2nccnc2-c2cccs2)c1OC [CBK036784] | 95.7
O=C(Cn1cccc(C(=O)NCc2ccccc2)c1=O)Nc1cc(F)ccc1N1CCCC1 [CBK286041] | 101
COc1cccc(NC(=O)c2ccc(-c3ccsc3)nc2NCC2CC2)c1 [CBK106227] | 90.5
COc1ccc(C(=O)C2=C(O)C(=O)N(CCN3CCOCC3)C2c2ccc(O)c(OC)c2)c(C)c1 (stereo not drawn) [CBK264858] | 88
COc1ccc(NC2c3cccc4cccc(c34)C2NS(=O)(=O)c2ccccc2)cc1 (stereo not drawn) [CBK264075] | 97.4
COCCn1c(SCc2cn3ccccc3c2C#N)nc(C)c1C [CBK306282] | 92.4

SMILES | viability at 28.5 h, 10 µM [%]
CC(C)n1ncc2c1NC(=O)CC2c1ccc2c(c1)n(C)c(=O)n2C (stereo not drawn) [CBK287926] | 108
Cn1c(NCc2ccco2)nc2c1c(=O)n(Cc1cccc(Br)c1)c(=O)n2C [CBK268863] | 79.8
CCOc1cc(NC2CCN(C(=O)CC3(O)CCCCC3)CC2)ncn1 [CBK304141] | 81.6
CC(C)N1CC[C@@H]2[C@H]1C(=O)NC[C@H](CCC(=O)Nc1ccccc1)N2C [CBK289030] | 86.1
O=C1N(Cc2cccc3ccccc23)c2ccccc2C1(c1ccc(O)cc1)c1ccc(O)cc1 [CBK261410] | 88.4
O=C(Cc1ccsc1)Nc1snnc1-c1ccc(Cl)cc1 [CBK153243] | 94.5
CC(=O)Nc1ccc(CNc2ncccc2OC(F)F)cc1 [CBK306016] | 95
Cc1ccc(C(=O)N2CN(C(=O)CNCC(C)C)CC2(C)C)cc1 [CBK089576C] | 96
Cc1cc(Cl)c(S(=O)(=O)N2CCN(c3ccccn3)CC2)cc1OCC(=O)NC1CCCCC1 [CBK266798] | 90.7
COc1ccc(C(=O)N[C@H]2C[C@H]3C(=O)Nc4ccccc4C(=O)N3C2)cc1 [CBK289355] | 84.7
Cc1c(Cl)ccc2c(C(=O)Nc3ccc(S(=O)(=O)N4CCOCC4)cc3)cc(-c3cccnc3)nc12 [CBK267718] | 85.5
CS(=O)(=O)c1ccc2nc(NC(=O)Cc3ccccc3)sc2c1 [CBK287339] | 89.8
N#Cc1cccc(CSc2nnc(Nc3ccccc3)n2-c2ccccc2)c1 [CBK266040] | 107
COc1ccc(-c2nc3c(c(=S)[nH]2)CCCC3)cc1 [CBK020440] | 99.2
O=C(N[C@H]1CCN2C(=O)c3cc(-c4cccs4)ccc3NC(=O)[C@H]12)c1cccs1 [CBK289336] | 91.8
COc1ccc(-c2ccc(OC)cc2C(=O)Nc2ccc3c(c2)N(C)C(=O)CO3)cc1 [CBK285650] | 92
Nc1nc2c(s1)c(=O)[nH]c(=O)n2-c1ccc(Cl)cc1 [CBK269891] | 78.1
O=C(CC1SC(NC2CCCCCC2)=NC1=O)NCc1c(F)cccc1Cl (stereo not drawn) [CBK067656] | 89.7
CCOC(=O)CCCNC(=O)N1CCN(c2ccccc2)CC1 [CBK155209] | 94.6
O=C(O)c1ccc2c(c1)C(=O)N(CCCN1CCOCC1)C2=O [CBK269245] | 102
CCOC(=O)C(C)n1nc(C)n2c(cc3ccsc32)c1=O (stereo not drawn) [CBK284079] | 96.2
O=C(CSc1nc2ccccc2c(=O)n1-c1ccc(F)cc1)Nc1ccc(C(=O)O)cc1 [CBK296140] | 96

SMILES | viability at 28.5 h, 10 µM [%]
CCOC(=O)c1[nH]c2ccccc2c1NS(=O)(=O)c1ccc(OC)c(OC)c1 [CBK047421] | 86
COc1ccnc(Cn2ncc(N3CCCC3)cc2=O)c1OC [CBK306672] | 82.7
O=C(Nc1ccc(Br)cc1)C1CCCN1S(=O)(=O)c1ccc(Cl)cc1 (stereo not drawn) [CBK155481] | 88.4
O=C1CC(N2CCN(Cc3ccc4c(c3)OCO4)CC2)C(=O)N1c1ccc(Cl)c(Cl)c1 (stereo not drawn) [CBK074549] | 99.4
O=C(CSc1ccccc1)c1ccccc1 [CBK002224] | 97.4
Cc1ccc(C)c(C(=O)CCC(=O)Nc2cccnc2)c1 [CBK266902] | 95.8
O=C(OCc1ccc(S(=O)(=O)N2CCOCC2)cc1)c1cc(-c2ccccc2)nc2ccccc12 [CBK267411] | 89.6
CC(=O)NS(=O)(=O)c1ccc(NC(=O)c2cn(-c3ccccc3)nc2-c2cccs2)cc1 [CBK296125] | 86.3
Cc1ccc(OCc2nnc(SCC(=O)O)n2N)cc1 [CBK266603] | 95.8
CCOC(=O)c1cccc(NS(=O)(=O)c2ccc(Br)cc2)c1 [CBK034346] | 97.7
CC(C)n1nccc1NC(=O)CCn1c(C(F)F)cc2cccnc21 [CBK284690] | 99.3
Cc1nc2ccc(C(=O)O)cc2c2c1CC(CN)O2 (stereo not drawn) [CBK286974] | 97.7
COc1ccc(NC(=O)C[C@@H]2C[C@@H](C(C)C)[C@H](CC#N)C=C2C)cn1 [CBK289216] | 85.7
Cc1cc(C)c(C(=O)NC2CCN(c3ncccc3C#N)CC2)c(=O)[nH]1 [CBK306709] | 110
CCCCC(=O)N(C)c1c(CC)nc2c(OCc3ccc(C#N)cc3)cccn12 [CBK147779] | 94.6
CC(=O)NC[C@H]1CN(c2ccc(C#N)c(C)c2)C(=O)O1 [CBK010393] | 107
c1ccc2c(c1)CC(Oc1cncc(N3CCNCC3)n1)C2 [CBK000242G] | 106
COc1cc(=O)n(C)c(C)n1 [CBK007924] | 91
COc1ccc(Cl)cc1NC(=O)Cn1nc(-c2ccccc2)ccc1=O [CBK270124] | 85.1
COc1cccc2c1cc(C(=O)NC1CCCN(C)C1)n2C (stereo not drawn) [CBK283266] | 90.2
Cn1cccc1C(=O)N1CCC(Cc2ccccc2)CC1 [CBK200182] | 102
CCCCN(/C=N/S(=O)(=O)c1ccccc1)CCCC [CBK026576] | 92.2

SMILES | viability at 28.5 h, 10 µM [%]
Cc1nnc(N/N=C\c2ccco2)n1N [CBK028824C] | 97.4
COC(=O)c1ccc2c(=O)n(CCc3ccc(S(N)(=O)=O)cc3)c(=S)[nH]c2c1 [CBK268238] | 91.2
CC(C)c1nnc(CCC(=O)N2CCC(c3ccccc3)C2)o1 (stereo not drawn) [CBK281925] | 89.3
O=C(O)CCC(=O)Nc1ccc(-c2ccc([N+](=O)[O-])cc2)cc1 [CBK261637] | 105
CC(C)(CNC(=O)Cn1cc(C(=O)NC2CCCCC2)ccc1=O)c1ccccc1F [CBK286099] | 89
O=C(Nc1cccc(S(=O)(=O)N2CCOCC2)c1)c1cc2ccccc2oc1=O [CBK268170] | 107
CC(Oc1ccccc1)c1nnc(SCC(=O)Nc2ccc(Br)cc2F)n1C (stereo not drawn) [CBK266364] | 101
O=[N+]([O-])c1ccc(-c2nc3ccc(Br)cn3[n+]2[O-])cc1 [CBK262335] | 96.5
CCOCCCNc1nc2c(c(=O)[nH]c(=O)n2C)n1CCC(C)C [CBK287968] | 87.7
CCOC(=O)C1CC2CCC1C[C@]21NC(=O)c2ccccc2N1 (stereo partly drawn) [CBK284441] | 93.4
COc1ccc(CSc2nnc(-c3ccco3)n2N)cc1 [CBK267548] | 90.3
Nc1nnc(-c2ccc(Oc3nc(N4CCOCC4)nc(N4CCOCC4)n3)cc2)s1 [CBK266305] | 96.1
CC1(C)NC(=O)N(CC(O)CN(c2cc(Cl)ccc2Cl)S(=O)(=O)c2ccccc2)C1=O (stereo not drawn) [CBK033672] | 91.4
O=C(Nc1cncc(OC2CCNCC2)n1)c1ccoc1 [CBK036366T] | 92
COc1ccc(CNC(=O)NC(=O)C2CCN(CCc3c[nH]c4ccccc34)CC2)c(OC)c1 [CBK034864] | 90
O=C(CSc1ccc(F)cc1)Nc1cc(Cl)ccc1O [CBK268685] | 87.5
CCNC(=O)N(C)c1c(CC)nc2c(OCc3ccc(S(C)(=O)=O)cc3)cccn12 [CBK147797] | 93.4
O=C(Nc1cccnc1)c1ccc(CN2CCC(Cc3ccccc3)CC2)cc1 [CBK264095] | 94.9
Nc1ncnc2c1nc1n2[C@H]2C[C@@H](O)[C@H](O2)[C@H]1O [CBK201183] | 96.2

Same assay, conditions: human, hela cells, % viability, bulk resorufin, single well

SMILES | viability at 28.5 h, 10 µM [%]
O=C1NC(=S)N(c2ccc(F)cc2)C(=O)/C1=C\NC1CCN(Cc2ccccc2)CC1 [CBK261825] | 93
